# Reference: patent US9212205B2, “Nucleic acid binding compounds and methods of use” (University of Rochester, priority 2007, dated 2015)
# Like-named read-outs stand apart in the source and are kept apart here.
# Columns and labels:
# [1] = target: variant (CUG) stem RNA (SEQ ID NO:9); assay: Fluorescence titration (FT), SEQ ID NO:9; format: binding
# Method: (§1) To test specificity and to confirm the determined binding affinities, filter binding assays and fluorescence titrations were performed with SEQ ID NOS: 7-11 (Table 5), and the HIV-1 frameshift stimulating RNA hairpin used in preceding Examples (SEQ ID NO:1, Table 5). Fluorescence titrations were performed using a Varian Cary Eclipse spectrophotometer. 2 μl of 50 or 500 μM small molecule were titrated into 400 μl of FAM labeled RNA sequences an allowed to equilibrate for at least 10 minutes, or until no change in fluorescence spectra was observed. Changes in fluorescence emission at 518 nm (excitation at 490 nm) were measured. Raw data were corrected for dilution dependant changes, and Em518 was plotted against small molecule concentration and fit to the one site binding equation y=(bmaz*x)/(KD+x).) Competition experiments utilizing target RNA (SEQ ID NO:7) and a 20-fold molar excess of total yeast tRNA were performed to measure non-specific RNA binding (Luedtke et al., “RNA-Ligand Interactions: Affinity and Specificity of Aminoglycoside Dimers and Acridine Conjugates to the HIV-1 Rev Response Element,” Biochemistry 42:11391-11403 (2003), which is hereby incorporated by reference in its entirety). Compound 1-1, the HIV-1 RNA ligand, served as a negative control.
# [2] = target: (CUG) loop RNA (SEQ ID NO:11); assay: Fluorescence titration (FT), SEQ ID NO:11; format: binding; set-up: key: NC = Not Calculable.; NS = Not Saturatable
# Method: as §1
# [3] = target: variant (CUG) stem RNA (SEQ ID NO:9); assay: Filter binding assay (FBA), SEQ ID NO:9
# Method: (§2) A filter binding assay system was utilized to provide a rapid initial assessment of binding affinity. All binding studies were performed in PBS pH 7.2+1 mM MgCl2 at 22° C. Various concentrations of small molecules were incubated with 10 nM FAM-labeled RNA in a total volume of 50 μl for 20 minutes. A slot blot apparatus was then assembled with a wet nitrocellulose filter, on top of a wet nylon filter, on top of filter paper. 40 μl of each binding mixture was then loaded into an individual well of the apparatus and allowed to penetrate the filters for 10 minutes. The peptidic disulfides selected from the DCL efficiently bind to the nitrocellulose filter. In contrast, the FAM-labeled RNA strands penetrate the nitrocellulose filter and are bound by the nylon filter. As such, RNA bound by the peptidic library members remains bound on the nitrocellulose filter, and unbound RNA passes to the nylon filter.
# (§3) Densitometric analysis of the ratio of labeled RNA on the nitrocellulose to nylon filters allows quantification of binding (FIG. 15A). All binding isotherms were fit to the logistic binding model (Equation 1 above). The repetitive nature of the target sequences may in some cases result in binding stoichiometries that are more complex than a simple 1:1 interaction.
# as §1
# [4] = target: (CUG)109 RNA (SEQ ID NO:8); assay: Filter binding assay (FBA), SEQ ID NO:8
# Method: as §2, §3
# [5] = target: (CUG)/(CAG) complimentary RNA (SEQ ID NO:10); assay: Filter binding assay (FBA), SEQ ID NO:10
# Method: as §2, §3, §1
# [6] = target: HIV-1 frameshift stimulating RNA hairpin (SEQ ID NO:1); assay: Filter binding assay (FBA), SEQ ID NO:1
# Method: as §2, §3, §1
# [7] = target: (CUG) repeat RNA SEQ ID NO:7; assay: Fluorescence titration (FT), SEQ ID NO:7; format: binding
# Method: as §1
# [8] = target: (CUG)/(CAG) complimentary RNA (SEQ ID NO:10); assay: Fluorescence titration (FT), SEQ ID NO:10; format: binding; set-up: key to KD: NC = Not Calculable.; NS = Not Saturatable
# Method: as §1
# [9] = target: (CUG) repeat RNA SEQ ID NO:7; assay: Filter binding assay (FBA), SEQ ID NO:7; conditions: FBA, read-out: KD
# Method: as §2, §3, §1
# [10] = target: (CUG) loop RNA (SEQ ID NO:11); assay: Filter binding assay (FBA), SEQ ID NO:11
# Method: as §2, §3, §1
# [11] = target: HIV-1 frameshift-inducing RNA stem-loop (SEQ ID NO:1); assay: Fluorescence titration of Cy-3 labeled HIV-1 RNA stem-loop; format: binding
# Method: The binding of dicarba analogs to the HIV-1 frameshift-inducing RNA was measured using fluorescence spectroscopy. Fluorescence titrations were performed on a Varian Cary eclipse fluorescence spectrophotometer using 1 cm path-length quartz fluorescence cell. The solution of Cy-3 labeled HIV-1 RNA stem-loop in PBS buffer (400 μL, 400 nM) was taken in the cell and excited with a wavelength of 550 nm. A PMT voltage of 715 V was used for collecting the fluorescence data and the emission spectrum was collected from 555 to 600 nm wavelength range. The ligand solution in PBS buffer was added to the target RNA in the cell in either 2 or 4 μL increments and was allowed to equilibrate for 10 minutes before recording the emission spectrum. Statistical analysis of the data was carried out using Origin 7 (OriginLab corporation). Binding constants were determined by fitting the data to one-site binding model equation.
# A 5′-Cy3 labeled upper stem-loop of HIV-1 RNA (SEQ ID NO:1) was titrated with increasing amount of the dicarba analogs in a phosphate buffer (PBS, pH 7.4) using the same protocol to that described in Example 3 above. The fluorescence intensity of the labeled RNA stem-loop decreased as a function of the ligand concentration. […] Normally, one would expect a greater difference between the affinities of the two isomers.
# To further evaluate the binding selectivity of dicarba analogs to the frameshift-inducing stem-loop, fluorescence titrations were repeated in the presence of twenty-fold excess concentration of yeast tRNA. […] In an interesting result it was discovered that the monomeric compound (5) also bound to the HIV-1 RNA stem-loop with similar affinity as that of the other analogs, but the binding affinity was diminished in the presence of tRNA. […] Quinoline is a known intercalator of nucleotide bases and has the capability to interact with RNA non-specifically. But it is the peptidic part of the molecule in ligands 5-5 E and 5-5 Z that imparts specificity to the interaction between the ligand and the RNA stem-loop. The peptidic part on monomer 5 is insufficient to impart specificity to the interaction as evident from the results.
# [12] = target: (CUG)109 RNA (SEQ ID NO:8)-MBNL1 protein interaction; assay: Enzyme Fragmentation Complementation (EFC) assay of (CUG)109-MBNL1 binding inhibition; format: biochemical
# Method: Small molecule-mediated inhibition of (CUG)109-MBNL1 binding was determined using an Enzyme Fragmentation Complementation (EFC) assay (Eglen et al., “β-Galactosidase Enzyme Fragment Complementation as A Novel Technology for High Throughput Screening,” Comb. Chem. High Throughput Screening 6:381-387 (2003), which is hereby incorporated by reference in its entirety). Briefly, this was performed by first immobilizing (CUG)109 RNA (SEQ ID NO:8) to a 96 well plate. Next, the immobilized RNA was incubated with recombinant MBNL1 fused to the PL enzyme donor peptide (PL-MBNL1, where “PL” is the commercial “ProLabel” enzyme donor peptide) (DiscoveRx PathHunter ProLabel Detection kit) in the presence of varying concentrations of small molecule inhibitor. The Enzyme Acceptor (EA-β-galactosidase) complement was then added, and the activity of the resulting plate—(CUG)109 bound (PL-MBNL1)-(EA-β-galactosidase) activity was monitored via a chemiluminsecent substrate. Only the EA-β-Gal bound to the PL-MBNL1 is capable of performing the luminescent reaction and, as such, any luminescence correlates to the amount of MBNL1 bound to the (CUG)109 immobilized on the plate. Wells lacking (CUG)109 RNA served as a background measure of non-specific luminescence and were subtracted from each experiment to yield a 0% bound value. Wells containing no small molecule inhibitor added served as 100% bound. […]
# [13] = format: physicochemical
# Method: The oxidation of 1-1 (FIG. 13, Scheme 2) to the disulfoxide was achieved by reacting 1-1 with H2O2 (1.1 eq.) and MoClO2 (0.05 eq) in 1:1 acetonitrile:water for 15 minutes, followed by purification by RP-HPLC (Jeyakumar et al., “Selective Oxidation of Sulfides to Sulfoxides and Sulfones at Room Temperature Using H2O2 and Mo(VI) Salt as Catalyst,” Tettrahedron Letters 47:4573-76 (2006), which is hereby incorporated by reference in its entirety).
# [14] = 8 μM tRNA (twenty-fold excess), stem-loop 4 × 10^−7 M, PBS buffer, 25° C., read-out: Binding Affinity (Kd) in the presence of excess yeast tRNA
# [15] = fluorescence titration, stem-loop 4 × 10^−7 M, PBS buffer, 25° C., read-out: Binding Affinity (Kd)
smiles,measurement,setting,value
CCc1nc2ccccc2cc1C(=O)N1CCC[C@H]1C(=O)N[C@@H](CSSC[C@H](NC(=O)[C@@H]1CCCN1C(=O)c1cc2ccccc2nc1CC)C(=O)N[C@@H](CCCCN)C(=O)NCCCN)C(=O)N[C@@H](CCCCN)C(=O)NCCCN [dimer 9-9],Kd,[1],1.7 µM
same,KD,[2],NS
same,Kd,[3],7.1 ± 1.1 µM
same,Kd,[4],2.1 µM
same,Kd,[5],> 40 µM
same,Kd,[6],24 ± 5 µM
same,Kd,[7]; SEQ ID NO: 7,2.2 µM
same,Kd,[7]; SEQ ID NO: 7 + 20 x tRNA,3.4 µM
same,Kd,[8],17 µM
same,Kd,[9]; SEQ ID NO: 7 + 20 x tRNA,18 ± 2.1 µM
same,Kd,[9]; SEQ ID NO: 7,6.7 ± 0.2 µM
same,Kd,[10],8.5 ± 0.1 µM
CCc1nc2ccccc2cc1C(=O)N[C@@H](CC(N)=O)C(=O)N[C@@H](CSSC[C@H](NC(=O)[C@@H]1CCCN1C(=O)c1cc2ccccc2nc1CC)C(=O)N[C@@H](CCCCN)C(=O)NCCCN)C(=O)N[C@@H](CCCCN)C(=O)NCCCN [dimer 7-9],Kd,[1],1.6 µM
same,KD,[2],NC
same,Kd,[3],6.4 ± 1 µM
same,Kd,[4],2.1 µM
same,Kd,[5],19.5 ± 1 µM
same,Kd,[6],22 ± 2 µM
same,Kd,[7]; SEQ ID NO: 7,2.1 µM
same,Kd,[7]; SEQ ID NO: 7 + 20 x tRNA,2.9 µM
same,KD,[8],NC
same,Kd,[9]; SEQ ID NO: 7 + 20 x tRNA,10 ± 0.7 µM
same,Kd,[9]; SEQ ID NO: 7,4.5 ± 0.6 µM
same,Kd,[10],4.6 ± 0.1 µM
CCc1nc2ccccc2cc1C(=O)N[C@@H](C/C=C\C[C@H](NC(=O)c1cc2ccccc2nc1CC)C(=O)N1CCC[C@H]1C(=O)N[C@@H](Cc1ccccc1)C(=O)NCCCN)C(=O)N1CCC[C@H]1C(=O)N[C@@H](Cc1ccccc1)C(=O)NCCCN [dimer 5-5 Z],Kd,[11]; [14],0.29 µM
same,Kd,[11]; [15],0.24 ± 0.05 µM
NCCCCC(NC(=O)C(CSSCC(NC(=O)C(CC(N)=O)NC(=O)c1ccc2c(c1)OCO2)C(=O)NC(CCCCN)C(=O)NCCCN)NC(=O)C(CC(N)=O)NC(=O)c1ccc2c(c1)OCO2)C(=O)NCCCN (stereo not drawn) [dimer 6-6],"Ki, inhibition of the (CUG)n MBNL1 interaction",[12],do not show any inhibitory effect
NCCCC[C@H](NC(=O)[C@H](CSSC[C@H](NC(=O)[C@@H]1CCCN1C(=O)c1ccc2c(c1)OCO2)C(=O)N[C@@H](CCCCN)C(=O)NCCCN)NC(=O)[C@@H]1CCCN1C(=O)c1ccc2c(c1)OCO2)C(=O)NCCCN [dimer 8-8],Kd,[1],2.1 µM
same,KD,[2],NC
same,Kd,[3],9.3 ± 0.4 µM
same,Kd,[4],2.5 µM
same,Kd,[5],21 ± 1.4 µM
same,Kd,[6],41 ± 9 µM
same,Kd,[7]; SEQ ID NO: 7,1.4 µM
same,Kd,[7]; SEQ ID NO: 7 + 20 x tRNA,2.4 µM
same,KD,[8],NC
same,Kd,[9]; SEQ ID NO: 7 + 20 x tRNA,14 ± 4 µM
same,Kd,[9]; SEQ ID NO: 7,5.4 ± 0.6 µM
same,Kd,[10],7.5 ± 0.9 µM
CCc1nc2ccccc2cc1C(=O)N[C@@H](C/C=C/C[C@H](NC(=O)c1cc2ccccc2nc1CC)C(=O)N1CCC[C@H]1C(=O)N[C@@H](Cc1ccccc1)C(=O)NCCCN)C(=O)N1CCC[C@H]1C(=O)N[C@@H](Cc1ccccc1)C(=O)NCCCN [dimer 5-5 E],Kd,[11]; [14],0.45 ± 0.09 µM
same,Kd,[11]; [15],0.41 ± 0.02 µM
C=CC[C@H](NC(=O)c1cc2ccccc2nc1CC)C(=O)N1CCC[C@H]1C(=O)N[C@@H](Cc1ccccc1)C(=O)NCCCN [monomer 5],Binding Affinity (Kd) in the presence of excess yeast tRNA,"[11]; 8 μM tRNA (twenty-fold excess), stem-loop 4 × 10^−7 M, PBS buffer, 25° C.",No binding
same,Kd,[11]; [15],0.37 ± 0.02 µM
CCc1nc2ccccc2cc1C(=O)N1CCC[C@H]1C(=O)N[C@@H](CSSC[C@H](NC(=O)[C@@H]1CCCN1C(=O)c1ccc2c(c1)OCO2)C(=O)N[C@@H](CCCCN)C(=O)NCCCN)C(=O)N[C@@H](CCCCN)C(=O)NCCCN [dimer 8-9],Kd,[1],2.6 µM
same,KD,[2],NC
same,Kd,[3],4.7 ± 0.1 µM
same,Kd,[4],1.9 µM
same,Kd,[5],21 ± 1.8 µM
same,Kd,[6],16 ± 4 µM
same,Kd,[7]; SEQ ID NO: 7,2.1 µM
same,Kd,[7]; SEQ ID NO: 7 + 20 x tRNA,4.2 µM
same,KD,[8],NC
same,Kd,[9]; SEQ ID NO: 7 + 20 x tRNA,9.6 ± 0.7 µM
same,Kd,[9]; SEQ ID NO: 7,4.1 ± 0.2 µM
same,Kd,[10],6 ± 0.1 µM
CCc1nc2ccccc2cc1C(=O)N[C@@H](C[S+]([O-])[S+]([O-])C[C@H](NC(=O)c1cc2ccccc2nc1CC)C(=O)N1CCC[C@H]1C(=O)N[C@@H](Cc1ccccc1)C(=O)NCCCN)C(=O)N1CCC[C@H]1C(=O)N[C@@H](Cc1ccccc1)C(=O)NCCCN (stereo partly drawn) [1-1 disulfoxide],degradation after synthesis,[13],degraded within a few hours of synthesis
same,Kd,"[11]; freshly prepared compound, read-out: KD, fluorescence titration with the HIV1 frameshift inducing stemloop",0.41 µM
